In publication PMC9313945, “Peptide Aggregation Induced Immunogenic Rupture (PAIIR)” (Advanced Science, 2022):

Tests used:
[1] = tested on: OVCAR‐8 cells; assay: Live-dead imaging of OVCAR-8 cells; type: cell-based, human; details: OVCAR-8, 0.5 mM peptide, 6 h, RPMI with 10% FBS; negative peptide added first, then positive
Procedure: We used the human ovarian cancer cell line OVCAR‐8 as our initial model to identify the effect of the peptides on cells. All cell culture experiments were performed in an RPMI cell culture medium with 10% FBS. At 0.5 mM (i.e., above the overall CAC), the individual peptides mixed on the cells by promptly adding the first negative, then positive counterparts. The viability of the cells was measured for 6h through live‐dead imaging (Figure 3A). […] Because the peptides, if aggregate, form one‐dimensional structures, the shape of the aggregates is not likely to be effective on the action of the peptides. [II] has the lowest CAC and highest ordered aggregation (Figure 2B–D). Additionally, the equilibrium time of [II] aggregations was the shortest among the tried groups (Table 1 ). These all indicate that [II] peptides have the highest affinity to each other, which creates aggregations strong and fast enough to induce cell death.
To understand the effect of peptide aggregates versus peptides alone on the cell death identified with [WW] and [II], we performed a live/dead assay with individual peptides at 0.5 mM after 6h (Figure 3A). […] Similarly, the negative [WW] […] Positive charged peptides containing W are promiscuous residues for membrane damaging peptides, possibly because of W's “anchoring” role; W is abundant in membrane proteins, particularly near the lipid–water interface.^[ [37], [38] ^]
Positively and negatively charged self‐assembling peptides were mixed 30 min prior to experiment except where otherwise stated. The viability of the cell lines was measured by using CellTiter‐Glo 2.0 Reagent (Promega G9248). The luminescent signal was measured in accordance with the manufacturer's instructions. Measurements were carried out with BioTek Neo2SM microplate reader and relative viability was calculated. Live‐Dead assay was carried out using Viability/Cytotoxicity Assay kit (BIOTIUM 30002). After peptide treatment, cells were treated with calcein and ethidium homodimer in accordance with the manufacturer's instructions. […]

[2] = tested on: OVCAR‐8 cells; assay: Caspase-3 and GSDME cleavage, western blot; type: cell-based, human; details: OVCAR-8, 50 µM cisplatin for 24 h
From the text: Regulated cell death via an inducer is concentration and time‐dependent and therefore controllable. On the other hand, unregulated cell death cannot be controlled to the same extent as it mainly results from mechanical forces or temperature. The unregulated cell death releases an instantaneous burst of DAMPs, while the DAMP release from regulated cell death is prolonged. Therefore, regulated ICD is desired for a controlled immune response. Regulated necrotic cell deaths are caspase‐dependent.^[ [50], [51] ^] To identify whether [II]‐induced cell death is regulated, we analyzed the cleavage of caspase‐3, a known mediator of apoptosis, and GSDME mediated pyroptosis (regulated necrosis).^[ [2], [52] ^] We compared the caspase‐3 cleavage among different cell death modalities; we used cisplatin ‐ a known apoptosis inducer in the OVCAR‐8 cell line.^[ [53] ^] We also used heat treatment to induce multiple cell death modalities, including necrosis, apoptosis, and necroptosis.^[ [54] ^] Additionally, we applied a freeze/thaw (F/T) method, a common technique to induce unregulated necrosis.^[ [55] ^] […]
Protein samples were diluted in Laemmli buffer and boiled for 5 min at 96 °C. […] Lastly, western blotting luminol reagent solution was added on top of the membranes, and chemiluminescence signal was detected by Azure c600 Imaging Biosystems.

Compound | Cell viability / cell death, live-dead imaging [1] | Caspase-3 cleavage [2]
EFFWWE | did not show any cell death | 
KFFIIK | does not cause cell death | 
KFFWWK | induced the cell death | 
N.N.[Cl][Pt][Cl] [Cisplatin, cisplatin] |  | showed caspase‐3 cleavage
